Experimental data from patent publication US20080009418A1, “Selective Inhibitors” (Alchemia LTD., priority 2004, published 2008).

Columns and labels:
[1] = molecular target: T1, Human κ-Opioid (KOP) (Homo sapiens, UniProt P41145); test: Radioligand binding, human κ-opioid (KOP) membranes, filtration, [3H]-Diprenorphine; settings: compound at 10 μM; for A2: inhibition of radioligand binding / A2 radioligand binding, percentage inhibition: [3H]-Diprenorphine; for A2: inhibition of radioligand binding: filtration
T1 construct: purchased Perkin Elmer Biosignal
Outline: (§1)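 Membranes from cloned human receptors were incubated with compound and radioligand for 1 hour at room temperature. Bound ligand was collected on 0.3% PEI-soaked filters, washed with cold 50 mM Tris-HCl pH 7.4, and counted by scintillation. Percent inhibition was computed against DMSO totals and reference-ligand nonspecific wells.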

[2] = molecular target: T2, Human melanocortin (MC5) (Homo sapiens, UniProt P33032); test: Radioligand binding, human melanocortin MC5 membranes, FlashPlate, [125I]-NDP-αMSH; settings: compound at 10 μM; for A5: inhibition of radioligand binding / A5 radioligand binding, percentage inhibition: [125I]-NDP-αMSH; for A5: inhibition of radioligand binding: FlashPlate
T2 construct: purchased Perkin Elmer Biosignal
Outline: (§2)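 Cloned human receptor membranes were coated onto FlashPlate wells and incubated with radioligand and compound (added from a 0.5 mM DMSO daughter plate) for 1 hour at room temperature in the dark. Scintillation counting gave percent inhibition, with DMSO defining total and reference ligand defining non-specific binding.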

[3] = molecular target: T3, Human Melanocortin (MC3) (Homo sapiens, UniProt P41968); test: Radioligand binding, human melanocortin MC3 membranes, FlashPlate, [125I]-NDP-αMSH; settings: compound at 10 μM; for A3: inhibition of radioligand binding / A3 radioligand binding, percentage inhibition: [125I]-NDP-αMSH; for A3: inhibition of radioligand binding: FlashPlate
T3 construct: purchased Perkin Elmer Biosignal
Outline: as §2

[4] = molecular target: T4, Human Melanocortin (MC4) (Homo sapiens, UniProt P32245); test: Radioligand binding, human melanocortin MC4 membranes, FlashPlate, [125I]-NDP-αMSH; settings: compound at 10 μM; for A4: inhibition of radioligand binding / A4 radioligand binding, percentage inhibition: [125I]-NDP-αMSH; for A4: inhibition of radioligand binding: FlashPlate
T4 construct: purchased Perkin Elmer Biosignal
Outline: as §2

[5] = molecular target: T5, Mouse urotensin (mUR2) (Mus musculus, UniProt Q8VIH9); test: Radioligand binding, mouse urotensin mUR2 membranes, FlashPlate, [125I]-Urotensin II; settings: compound at 10 μM; for A11: inhibition of radioligand binding / A11 radioligand binding, percentage inhibition: [125I]-Urotensin II; for A11: inhibition of radioligand binding: FlashPlate
T5 construct: purchased Perkin Elmer Biosignal
T5 sequence (Q8VIH9 1-385): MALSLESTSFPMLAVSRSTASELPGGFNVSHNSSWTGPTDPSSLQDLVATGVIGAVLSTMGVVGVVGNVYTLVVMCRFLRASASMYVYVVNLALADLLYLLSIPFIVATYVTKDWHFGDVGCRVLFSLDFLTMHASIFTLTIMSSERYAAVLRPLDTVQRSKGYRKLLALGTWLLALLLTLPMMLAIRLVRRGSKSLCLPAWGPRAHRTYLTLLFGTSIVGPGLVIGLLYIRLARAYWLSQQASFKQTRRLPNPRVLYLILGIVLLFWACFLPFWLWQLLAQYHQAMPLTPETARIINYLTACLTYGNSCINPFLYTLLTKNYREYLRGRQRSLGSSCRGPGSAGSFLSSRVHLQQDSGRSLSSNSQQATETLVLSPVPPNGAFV
Outline: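 Cloned mouse urotensin (mUR2) receptor membranes from Perkin Elmer Biosignal were immobilized in FlashPlate microplates using a proprietary coating. Each well got 19.5 μl buffer, then 0.5 μl of DMSO, reference ligand, or compound. Adding 5 μl of [125I]-Urotensin II, diluted to 5× final concentration in binding buffer, started binding. Plates were sealed with TopSeal-A and incubated 1 hour at room temperature in the dark. Wells were counted for 30 seconds each on a TopCount after a 60-second delay, and percentage inhibition was calculated.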

[6] = molecular target: T6, Human neuropeptide Y (NPY-Y1) (Homo sapiens, UniProt P25929); test: Radioligand binding, human neuropeptide Y NPY-Y1 membranes, FlashPlate, [125I]-PYY; settings: compound at 10 μM; for A9: inhibition of radioligand binding / A9 radioligand binding, percentage inhibition: [125I]-PYY; for A9: inhibition of radioligand binding: FlashPlate
T6 construct: purchased Perkin Elmer Biosignal
T6 sequence (P25929 1-384): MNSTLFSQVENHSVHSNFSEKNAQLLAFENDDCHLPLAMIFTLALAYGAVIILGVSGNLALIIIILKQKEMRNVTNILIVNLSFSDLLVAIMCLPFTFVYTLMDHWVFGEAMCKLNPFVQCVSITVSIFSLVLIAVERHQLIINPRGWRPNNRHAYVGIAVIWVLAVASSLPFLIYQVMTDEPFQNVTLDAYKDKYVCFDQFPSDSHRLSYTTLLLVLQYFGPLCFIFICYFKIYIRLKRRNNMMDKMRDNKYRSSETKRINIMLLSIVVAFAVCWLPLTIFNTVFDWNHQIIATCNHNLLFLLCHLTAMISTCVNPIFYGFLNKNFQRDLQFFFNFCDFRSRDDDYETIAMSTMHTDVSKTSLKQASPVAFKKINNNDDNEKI
Outline: as §2

[7] = molecular target: T7, Human neurokinin (NK1) (Homo sapiens, UniProt P25103); test: Radioligand binding, human neurokinin NK1 membranes, filtration, [125I]-Substance P; settings: compound at 10 μM; for A8: inhibition of radioligand binding / A8 radioligand binding, percentage inhibition: [125I]-Substance P; for A8: inhibition of radioligand binding: filtration
T7 construct: purchased Perkin Elmer Biosignal
Outline: as §1

[8] = molecular target: T8, Human μ-opioid (MOP) (Homo sapiens, UniProt P35372); test: Radioligand binding, human μ-opioid (MOP) membranes, FlashPlate, [3H]-Naloxone; settings: compound at 10 μM; for A7: inhibition of radioligand binding / A7 radioligand binding, percentage inhibition: [3H]-Naloxone; for A7: inhibition of radioligand binding: FlashPlate
T8 construct: purchased Perkin Elmer Biosignal
Outline: as §2

[9] = molecular target: T9, Human δ-opioid (DOP) (Homo sapiens, UniProt P41143); test: Radioligand binding, human δ-opioid (DOP) membranes, FlashPlate, [3H]-Bremazocine; settings: compound at 10 μM; for A1: inhibition of radioligand binding / A1 radioligand binding, percentage inhibition: [3H]-Bremazocine; for A1: inhibition of radioligand binding: FlashPlate
T9 construct: purchased Perkin Elmer Biosignal
Outline: as §2

[10] = molecular target: T10, Human opioid (ORL1) (Homo sapiens, UniProt P41146); test: Radioligand binding, human opioid ORL1 membranes, FlashPlate, [125I]-Nociceptin; settings: compound at 10 μM; for A10: inhibition of radioligand binding / A10 radioligand binding, percentage inhibition: [125I]-Nociceptin; for A10: inhibition of radioligand binding: FlashPlate
T10 construct: purchased Perkin Elmer Biosignal
Outline: as §2

[11] = molecular target: T11, Human melanin-concentrating hormone (MCH1) (Homo sapiens, UniProt Q99705); test: Radioligand binding, human melanin-concentrating hormone MCH1 membranes, FlashPlate, [125I]-S36057; settings: compound at 10 μM; for A6: inhibition of radioligand binding: [125I]-S36057, FlashPlate; for A6 radioligand binding, percentage inhibition: [125I]-S36057
T11 construct: purchased Perkin Elmer Biosignal
Outline: as §2

T3 sequence (P41968 whole entry): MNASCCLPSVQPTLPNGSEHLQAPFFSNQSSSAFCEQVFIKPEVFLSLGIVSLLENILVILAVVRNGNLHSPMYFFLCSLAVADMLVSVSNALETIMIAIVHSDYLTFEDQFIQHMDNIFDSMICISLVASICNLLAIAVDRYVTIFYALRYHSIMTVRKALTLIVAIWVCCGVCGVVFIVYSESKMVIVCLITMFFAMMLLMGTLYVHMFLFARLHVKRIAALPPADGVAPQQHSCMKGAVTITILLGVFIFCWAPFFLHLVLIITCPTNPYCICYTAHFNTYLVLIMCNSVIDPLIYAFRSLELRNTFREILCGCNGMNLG
T9 sequence (P41143 whole entry): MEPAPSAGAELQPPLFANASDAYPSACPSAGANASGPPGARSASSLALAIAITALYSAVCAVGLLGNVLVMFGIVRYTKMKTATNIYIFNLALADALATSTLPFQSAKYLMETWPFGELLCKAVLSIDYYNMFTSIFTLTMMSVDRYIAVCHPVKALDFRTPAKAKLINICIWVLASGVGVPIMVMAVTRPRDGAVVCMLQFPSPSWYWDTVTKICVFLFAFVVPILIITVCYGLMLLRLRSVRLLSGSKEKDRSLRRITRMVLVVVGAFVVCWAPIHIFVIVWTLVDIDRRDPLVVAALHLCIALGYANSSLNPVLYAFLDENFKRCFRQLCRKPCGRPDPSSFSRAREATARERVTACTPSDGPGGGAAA
T8 sequence (P35372 whole entry): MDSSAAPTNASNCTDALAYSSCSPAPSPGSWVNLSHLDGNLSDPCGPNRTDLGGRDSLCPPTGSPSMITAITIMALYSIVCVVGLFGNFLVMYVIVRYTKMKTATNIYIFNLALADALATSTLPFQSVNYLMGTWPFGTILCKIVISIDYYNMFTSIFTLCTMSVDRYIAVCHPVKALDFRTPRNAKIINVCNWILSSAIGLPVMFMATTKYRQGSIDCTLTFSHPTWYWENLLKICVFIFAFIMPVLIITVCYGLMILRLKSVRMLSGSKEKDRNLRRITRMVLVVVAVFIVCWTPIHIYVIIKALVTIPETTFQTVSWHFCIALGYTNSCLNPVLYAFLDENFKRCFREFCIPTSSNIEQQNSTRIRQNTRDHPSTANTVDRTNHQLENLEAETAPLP
T4 sequence (P32245 whole entry): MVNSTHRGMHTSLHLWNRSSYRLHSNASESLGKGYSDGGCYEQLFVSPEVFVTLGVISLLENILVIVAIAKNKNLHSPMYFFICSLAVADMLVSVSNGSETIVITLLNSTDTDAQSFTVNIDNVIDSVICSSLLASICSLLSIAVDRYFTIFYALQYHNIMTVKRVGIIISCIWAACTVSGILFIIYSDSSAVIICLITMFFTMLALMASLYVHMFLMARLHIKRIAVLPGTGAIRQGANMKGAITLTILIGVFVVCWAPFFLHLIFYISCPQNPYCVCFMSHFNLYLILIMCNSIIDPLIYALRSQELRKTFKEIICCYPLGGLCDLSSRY
T7 sequence (P25103 whole entry): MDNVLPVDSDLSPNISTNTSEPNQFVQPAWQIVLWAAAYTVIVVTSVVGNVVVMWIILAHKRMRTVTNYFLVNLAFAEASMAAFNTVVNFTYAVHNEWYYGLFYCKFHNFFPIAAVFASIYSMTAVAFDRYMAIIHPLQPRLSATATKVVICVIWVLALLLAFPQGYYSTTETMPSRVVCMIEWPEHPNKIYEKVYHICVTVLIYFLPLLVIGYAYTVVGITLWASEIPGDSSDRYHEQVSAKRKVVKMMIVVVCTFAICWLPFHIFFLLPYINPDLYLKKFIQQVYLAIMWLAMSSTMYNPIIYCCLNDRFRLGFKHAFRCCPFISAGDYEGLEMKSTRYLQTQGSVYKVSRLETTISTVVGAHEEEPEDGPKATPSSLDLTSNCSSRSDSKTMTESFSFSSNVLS
T2 sequence (P33032 whole entry): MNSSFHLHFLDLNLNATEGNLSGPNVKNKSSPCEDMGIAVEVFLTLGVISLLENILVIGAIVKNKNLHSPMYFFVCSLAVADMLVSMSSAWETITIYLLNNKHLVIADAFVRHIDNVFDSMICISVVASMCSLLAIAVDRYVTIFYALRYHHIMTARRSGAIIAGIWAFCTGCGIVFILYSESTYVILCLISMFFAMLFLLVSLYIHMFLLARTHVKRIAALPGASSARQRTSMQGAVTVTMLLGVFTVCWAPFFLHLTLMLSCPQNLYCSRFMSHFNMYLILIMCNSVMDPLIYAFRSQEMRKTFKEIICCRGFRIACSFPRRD
T10 sequence (P41146 whole entry): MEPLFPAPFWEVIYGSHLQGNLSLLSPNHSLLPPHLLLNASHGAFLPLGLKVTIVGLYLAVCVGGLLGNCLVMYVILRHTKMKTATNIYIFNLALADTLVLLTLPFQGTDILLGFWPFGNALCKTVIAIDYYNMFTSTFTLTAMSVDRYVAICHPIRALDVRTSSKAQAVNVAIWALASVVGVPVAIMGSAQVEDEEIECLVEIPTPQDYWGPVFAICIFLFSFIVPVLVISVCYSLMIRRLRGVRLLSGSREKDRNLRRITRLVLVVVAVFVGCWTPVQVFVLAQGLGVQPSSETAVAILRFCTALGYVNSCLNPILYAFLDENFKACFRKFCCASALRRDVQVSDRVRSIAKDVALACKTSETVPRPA
T11 sequence (Q99705 whole entry): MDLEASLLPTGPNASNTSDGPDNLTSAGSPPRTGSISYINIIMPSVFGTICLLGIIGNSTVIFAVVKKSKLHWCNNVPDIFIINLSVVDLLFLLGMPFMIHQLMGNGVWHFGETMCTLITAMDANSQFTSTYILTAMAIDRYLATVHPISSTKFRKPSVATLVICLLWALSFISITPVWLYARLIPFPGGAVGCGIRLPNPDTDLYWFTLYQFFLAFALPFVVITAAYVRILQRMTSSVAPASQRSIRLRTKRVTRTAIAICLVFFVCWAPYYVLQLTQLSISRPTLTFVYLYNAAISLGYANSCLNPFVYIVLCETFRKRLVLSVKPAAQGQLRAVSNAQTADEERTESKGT
T1 sequence (P41145 whole entry): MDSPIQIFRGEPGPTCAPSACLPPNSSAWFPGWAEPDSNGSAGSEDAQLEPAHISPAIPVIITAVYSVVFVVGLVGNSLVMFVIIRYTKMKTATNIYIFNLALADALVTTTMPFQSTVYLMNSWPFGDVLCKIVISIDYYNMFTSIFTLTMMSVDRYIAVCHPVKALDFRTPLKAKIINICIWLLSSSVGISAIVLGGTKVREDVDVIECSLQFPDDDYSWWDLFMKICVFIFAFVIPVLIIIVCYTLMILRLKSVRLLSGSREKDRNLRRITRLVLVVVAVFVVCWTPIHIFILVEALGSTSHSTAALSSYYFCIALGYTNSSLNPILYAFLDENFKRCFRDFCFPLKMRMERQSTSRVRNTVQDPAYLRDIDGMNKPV

Structure (SMILES)	A2: inhibition of radioligand binding [1]	A5: inhibition of radioligand binding [2]	A3: inhibition of radioligand binding [3]	A4: inhibition of radioligand binding [4]	A11: inhibition of radioligand binding [5]	A9: inhibition of radioligand binding [6]	A8: inhibition of radioligand binding [7]	A7: inhibition of radioligand binding [8]	A1: inhibition of radioligand binding [9]	A10: inhibition of radioligand binding [10]	A6: inhibition of radioligand binding [11]	A2 radioligand binding, percentage inhibition [1]	A5 radioligand binding, percentage inhibition [2]	A3 radioligand binding, percentage inhibition [3]	A4 radioligand binding, percentage inhibition [4]	A11 radioligand binding, percentage inhibition [5]	A9 radioligand binding, percentage inhibition [6]	A8 radioligand binding, percentage inhibition [7]	A7 radioligand binding, percentage inhibition [8]	A1 radioligand binding, percentage inhibition [9]	also measured
COC[C@H]1OC(OCc2ccc(-c3ccccc3)cc2)[C@H](NC(=O)CCCN)[C@@H](OCc2ccc3ccccc3c2)[C@@H]1O (stereo partly shown) [compound 5]	–	–	–	–	–	–	–	–	–	–	–	–	–	–	–	–	–	–	–	–	A2 radioligand binding inhibition ([1]; human κ-opioid (KOP) membranes): − (“−” indicates less than 50% inhibition at 10 μM); A5 radioligand binding inhibition ([2]; human melanocortin MC5 membranes): + (“+” indicates greater than 50% inhibition at 10 μM); A3 radioligand binding inhibition ([3]; human melanocortin MC3 membranes): − (“−” indicates less than 50% inhibition at 10 μM); A4 radioligand binding inhibition ([4]; human melanocortin MC4 membranes): − (“−” indicates less than 50% inhibition at 10 μM); A11 radioligand binding inhibition ([5]; mouse urotensin mUR2 membranes): − (“−” indicates less than 50% inhibition at 10 μM); A9 radioligand binding inhibition ([6]; human NPY-Y1 membranes): − (“−” indicates less than 50% inhibition at 10 μM); A8 radioligand binding inhibition ([7]; human neurokinin NK1 membranes): + (“+” indicates greater than 50% inhibition at 10 μM); A7 radioligand binding inhibition ([8]; human μ-opioid (MOP) membranes): − (“−” indicates less than 50% inhibition at 10 μM); A1 radioligand binding inhibition ([9]; human δ-opioid (DOP) membranes): − (“−” indicates less than 50% inhibition at 10 μM); A10 radioligand binding inhibition ([10]; human ORL1 membranes): − (“−” indicates less than 50% inhibition at 10 μM); A6 radioligand binding inhibition ([11]; human MCH1 membranes): − (“−” indicates less than 50% inhibition at 10 μM)
COCC1OC(OCc2ccc(Cl)cc2)C(NC(=O)CCCNC(=N)N)C(OCc2ccc(Cl)cc2)C1O (stereo not shown) [compound 204]	− (“−” indicates less than 50% inhibition at 10 μM)	+ (“+” indicates greater than 50% inhibition at 10 μM)	+ (“+” indicates greater than 50% inhibition at 10 μM)	+ (“+” indicates greater than 50% inhibition at 10 μM)	− (“−” indicates less than 50% inhibition at 10 μM)	− (“−” indicates less than 50% inhibition at 10 μM)	+ (“+” indicates greater than 50% inhibition at 10 μM)	− (“−” indicates less than 50% inhibition at 10 μM)	− (“−” indicates less than 50% inhibition at 10 μM)	− (“−” indicates less than 50% inhibition at 10 μM)	+ (“+” indicates greater than 50% inhibition at 10 μM)	–	–	–	–	–	–	–	–	–	–
COCC1OC(OCc2ccccc2)C(NC(=O)CCN)C(OCc2ccccc2)C1O (stereo not shown) [compound 172]	–	–	–	–	–	–	–	–	–	–	–	− (“−” indicates less than 50% inhibition at 10 μM)	− (“−” indicates less than 50% inhibition at 10 μM)	− (“−” indicates less than 50% inhibition at 10 μM)	− (“−” indicates less than 50% inhibition at 10 μM)	− (“−” indicates less than 50% inhibition at 10 μM)	− (“−” indicates less than 50% inhibition at 10 μM)	+ (“+” indicates greater than 50% inhibition at 10 μM)	− (“−” indicates less than 50% inhibition at 10 μM)	− (“−” indicates less than 50% inhibition at 10 μM)	A10 radioligand binding, percentage inhibition [10]: − (“−” indicates less than 50% inhibition at 10 μM); A6 radioligand binding, percentage inhibition [11]: − (“−” indicates less than 50% inhibition at 10 μM)
CSC1OC(COCc2ccccc2)C(O)C(OCc2ccc(Cl)cc2)C1NC(=O)CNC(=N)N (stereo not shown) [compound 265]	− (“−” indicates less than 50% inhibition at 10 μM)	− (“−” indicates less than 50% inhibition at 10 μM)	− (“−” indicates less than 50% inhibition at 10 μM)	+ (“+” indicates greater than 50% inhibition at 10 μM)	− (“−” indicates less than 50% inhibition at 10 μM)	− (“−” indicates less than 50% inhibition at 10 μM)	+ (“+” indicates greater than 50% inhibition at 10 μM)	− (“−” indicates less than 50% inhibition at 10 μM)	− (“−” indicates less than 50% inhibition at 10 μM)	− (“−” indicates less than 50% inhibition at 10 μM)	− (“−” indicates less than 50% inhibition at 10 μM)	–	–	–	–	–	–	–	–	–	–
CO[C@H]1[C@H](O)[C@@H](COCc2cccc(O)c2)OC(OCc2ccc3ccccc3c2)[C@@H]1NC(=O)CCCNC(=N)N (stereo partly shown) [compound 152]	–	–	–	–	–	–	–	–	–	–	–	− (“−” indicates less than 50% inhibition at 10 μM)	− (“−” indicates less than 50% inhibition at 10 μM)	− (“−” indicates less than 50% inhibition at 10 μM)	− (“−” indicates less than 50% inhibition at 10 μM)	− (“−” indicates less than 50% inhibition at 10 μM)	− (“−” indicates less than 50% inhibition at 10 μM)	− (“−” indicates less than 50% inhibition at 10 μM)	+ (“+” indicates greater than 50% inhibition at 10 μM)	− (“−” indicates less than 50% inhibition at 10 μM)	A10 radioligand binding, percentage inhibition [10]: − (“−” indicates less than 50% inhibition at 10 μM); A6 radioligand binding, percentage inhibition [11]: − (“−” indicates less than 50% inhibition at 10 μM)
